Experimental data as given in patent US7910584B2, “3-spiroindolin-2-one derivatives, preparation and therapeutic use thereof” (Sanofi-Aventis, priority 2004, dated 2011).

Biological target: T1, recombinant human vasopressin V2 receptors (Homo sapiens, UniProt P30518)
T1 construct: expressed in transfected cells; host or cells: CHO cell line (plasma membranes)
Assay: In vitro binding assay, [3H]-AVP displacement on plasma membranes
Details: membranes from tissues or CHO cell line expressing recombinant human V2 receptors; 3.5 nM [H3]-AVP; 45 minutes at 25° C.; read-out: IC50 (concentration of product that inhibits 50% of the specific binding)
Description: They were in particular tested with regard to their effects.
The affinity of the compounds of the invention for vasopressin V2 receptors was measured in in vitro binding assays, as described in J. Pharmacol. Exp. Ther., (2002), 300, pp. 1122-1130.
Plasma membranes (approximately 20 μg/ml) originating from tissues or the CHO cell line expressing recombinant human vasopressin V2 receptors are incubated for 45 minutes at 25° C. in 200 μl of TRIS-HCl buffer (50 mM; pH 8.2) containing 2 mM of MgCl2, 1 mM of EDTA, 0.1% of BSA, 1 mg/ml of bacitracin and 3.5 nM of [H^3]-AVP. The reaction is stopped by filtration and washing over GF/B filters. The nonspecific binding is determined in the presence of 1 μM of AVP. The compounds of the invention, dissolved beforehand at the concentration of 10^−2 M in DMSO, are tested in a dilution range.
For each concentration, the results are expressed as percentage inhibition of specific binding. An IC50 (concentration of product that inhibits 50% of the specific binding) is determined for each of the products using the “RS1 binding” program (BBN Domain, Cambridge, Mass.).

T1 sequence (P30518 whole entry): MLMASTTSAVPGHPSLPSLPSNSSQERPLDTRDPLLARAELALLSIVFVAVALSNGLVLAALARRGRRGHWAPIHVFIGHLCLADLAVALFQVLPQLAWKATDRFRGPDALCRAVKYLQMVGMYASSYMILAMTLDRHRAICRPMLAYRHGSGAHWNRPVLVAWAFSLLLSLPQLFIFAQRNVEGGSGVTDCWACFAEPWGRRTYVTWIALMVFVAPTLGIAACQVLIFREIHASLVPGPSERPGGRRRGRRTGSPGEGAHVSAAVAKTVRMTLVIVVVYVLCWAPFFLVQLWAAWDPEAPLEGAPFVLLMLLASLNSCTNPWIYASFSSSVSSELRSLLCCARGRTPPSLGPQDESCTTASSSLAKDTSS

IC50: ~7.3 nM
SMILES: CCOc1ccc2c(c1)C1(CCC(OCCN3CCOCC3=O)CC1)C(=O)N2S(=O)(=O)c1ccc(C(=O)NC(C)(C)C)cc1OC (stereo not shown)
